SMILES strings stand for the structures.

For experiment [1], the system named is ZEB1 expression in MCF10CA1a cells. The experiment in a line: qPCR ZEB1 mRNA, TGFβ-induced EMT. The conditions noted are these: GC7 10 μM pre-treatment, TGFβ 2.5 ng/mL 48 hours, fibronectin. In kind it is cell-based, human. The text has this: The pathway in which the inventors are interested in targeting eIF5A is in the context of TGFβ-induced EMT and TGFβ is a well-characterized inducer of EMT. […] Phase-contrast images are shown to the right of the western blot to indicate a shift in morphology after treatment with TGFβ. […] Since TGFβ can induce PEAK1 upregulation, while in contrast, hypusinated eIF5A promotes PEAK1 translation, the inventors sought to see if TGFβ alone can upregulate hypusinated eIF5A. Post-translational modifications can occur relatively fast. Therefore short-term treatments of TGFβ on 4T1, 67NR and MCF10CA1a cells were performed initially. Protein lysates were collected after 10, 30 and 120 minutes of treatment and immunoblotted for hypusine, total eIF5A and β-actin (FIG. 4B). […] Relative band intensity is graphed to the right of the western blot in which the ratio between hypusine to total eIF5A is compared first between treated samples to control samples then a ratio is calculated comparing each time point relative to 10 minutes as a starting time point of reference. […] The inventors were also interested in what genes were altered at the transcriptional level when dual treating with TGFβ and GC7 at the same time to block EMT. […]

In experiment [2] the test system is eIF5A. The conditions noted are these: during GC7 treatment; cited from earlier work.
Experiment [3] relates to ZEB1 expression in 4T1 cells. The experiment can be described thus: qPCR ZEB1 mRNA, TGFβ-induced EMT. In kind it is cell-based, mouse. The conditions noted are these: for ZEB1 mRNA expression: GC7 10 μM pre-treatment. The text has this:
The pathway in which the inventors are interested in targeting eIF5A is in the context of TGFβ-induced EMT and TGFβ is a well-characterized inducer of EMT. […] Phase-contrast images are shown to the right of the western blot to indicate a shift in morphology after treatment with TGFβ. […] Since TGFβ can induce PEAK1 upregulation, while in contrast, hypusinated eIF5A promotes PEAK1 translation, the inventors sought to see if TGFβ alone can upregulate hypusinated eIF5A. Post-translational modifications can occur relatively fast. Therefore short-term treatments of TGFβ on 4T1, 67NR and MCF10CA1a cells were performed initially. Protein lysates were collected after 10, 30 and 120 minutes of treatment and immunoblotted for hypusine, total eIF5A and β-actin (FIG. 4B). […] Relative band intensity is graphed to the right of the western blot in which the ratio between hypusine to total eIF5A is compared first between treated samples to control samples then a ratio is calculated comparing each time point relative to 10 minutes as a starting time point of reference. […] The inventors were also interested in what genes were altered at the transcriptional level when dual treating with TGFβ and GC7 at the same time to block EMT. To test for this, 4T1 and MCF10CA1a cells were plated on either plastic or fibronectin extra-cellular matrix (ECM) protein and pre-treated them with GC7 at 10 μM for 48 hours to ensure the eIF5A hypusination pathway is blocked. The inventors then treated with TGFβ at 2.5 ng/mL and collected RNA after 12 or 48 hours. […] Phase contrast images were also taken before RNA collection to show changes in morphology where EMT was either induced or reversed (FIG. 4C). […] Also, with the correct treatment time and conditions, inhibition of hypusination can block TGFβ-induced EMT.
Next, the inventors investigated whether blockade of HDAC6 and DHPS activity could further suppress TGFβ-induced EMT either independently or simultaneously. To test this, 4T1 cells were treated with either TubA at 10 μM, GC7 at 10 μM or both for 48 hours. At this time point, protein lysates were collected as well as phase-contrast images (FIGS. 6B and 6C). At that same time point, the media was changed and the cells were re-treated with the same drugs at the same concentrations; however, this time with the addition of TGFβ at 2.5 ng/mL. The inventors collected protein lysates and phase-contrast images just one day post TGFβ treatment, calling this the 72-hour time point (FIGS. 6B and 6C). In addition, the inventors collected mRNA, protein lysates, phase-contrast and immunofluorescences images two days post TGFβ treatment, calling this the 96-hour time point (FIGS. 6A, 6B, 6C and 6D).
Cell lines were plated in a 6 well plate at 1e5 cells/mL and left to attach overnight. […]
(In general: Real-time PCR tracks product formation cycle by cycle.)

Experiment [4] relates to MCF10A. The experiment can be described thus: Cell proliferation assay (CellTiter 96 AQueous One, MTS). The conditions noted are these: non-malignant mammary cell line. In kind it is cell-based, human. The protocol: The CellTiter 96® AQueous One Solution (Promega) was used to perform cell proliferation experiments. Cells were plated at 5e3 cells/mL at 200 μL/well in a 96-well plate and allowed to attach overnight. Cells were then treated with indicated drugs the next day at various concentrations. After 72 hours of drug treatments, 40 μL of AQueous One solution was added to each well. Absorbance readings were measured at 490 nm wavelength at 1.5, 2 and 3 hours (absorbance is directly proportional to the number of living cells).

Experiment [5] has as its system PEAK1 protein. The experiment can be described thus: Western blot PEAK1. In kind it is cell-based, mouse, human. The conditions noted are these: GC7 0.1 μM to 100 μM, 48 hours; 4T1, 67NR and MCF10CA1a cells. Here is the method:
The inventors sought to determine if the decrease in cell viability is due to the inhibition of post translational modification of eIF5A. To test this, all cell lines were treated with GC7 at 100 μM for 48 hours—which were the time point and concentration at which a decrease in cell viability was seen (FIG. 2B). The inventors then collected, performed a western blot and immunoblotted for hypusine, total eIF5A and β-actin as a loading control (FIG. 3A). […] To test if this effect is dose-dependent, 4T1, 67NR and MCF10CA1a cells were treated with various concentrations of GC7 ranging from 0.1 μM to 100 μM. Protein lysates were then collected after 48 hours of treatment and performed a western blot. […] To validate this in breast cancer cells, the inventors immunoblotted for PEAK1 as well as E-cadherin, hypusine, total eIF5A and β-actin as a loading control (FIG. 3B). […] The inventors next looked at cell viability at lower concentrations of GC7, such as 1 μM and 10 μM, where a decrease in hypusinated eIF5A is still achieved but the decrease in cell viability is not as great in lower concentrations that do still target hypusinated eIF5A (FIG. 3C).
Cell lines were plated in a 6 well plate at 1e5 cells/mL and left to attach overnight. […] Protein concentrations were determined using Bradford Assay. […] Band intensity graphs were quantified using Fiji software after image thresholding.

`N=C(N)NCCCCCCCN.O=S(=O)(O)O` [GC7, N1-Guanyl-1,7-diaminoheptane]: the “TGFβ-induced EMT (ZEB1 mRNA)” value in experiment [1] is given as “this EMT was blocked”. Besides, the “FOXP3+ regulatory T cells at the site of the tumor” value in experiment [2] is “significantly increased”. Besides, the “pancreatic and splenic CD8+ lymphocytes” value in experiment [2] is “did not seem to be affected”. For the same compound, in experiment [2], the “recruitment of CD4+ T cells at the site of the tumor” value is listed as “significantly decrease”. Moreover, in experiment [3] (10 μM each drug, re-treated with TGFβ 2.5 ng/mL at 48 hours, 96-hour time point), the “TGFβ-induced EMT, ZEB1 mRNA (qPCR)” value was “failed to block TGFβ-induced EMT”. Further, the “ZEB1 mRNA expression” value in experiment [3] (TGFβ 2.5 ng/mL 12 hours, fibronectin) was “this effect was blocked on fibronectin”; in experiment [3] (TGFβ 2.5 ng/mL 12 hours, plastic), “decreased”; in experiment [3] (TGFβ 2.5 ng/mL 48 hours), “This effect was not seen after 48 hours”. Besides, the “sensitivity to GC7 treatment” value in experiment [4] is “one of the most sensitive”. Also, the PEAK1 protein expression result in experiment [5] is “striking down regulation of PEAK1 protein in a dose-dependent manner”.

The record behind these values is patent publication US20190216751A1, “Compositions and Methods for the Treatment and Prevention of Cancer” (California State University Northridge, priority 2017, published 2019).
